The source of these data is PMC6437697 (Journal of Medicinal Chemistry, 2019).

Common to all, as to test: KINOMEscan
Type in all cases: binding
Holding throughout (conditions): read-out: % control activity remaining

In one experiment the target is T1, MLK1 (Homo sapiens, UniProt P80192).
T1 construct: purchased Eurofins DiscoverX KINOMEscan

The target in a further experiment is T2, MAP3K3 (Homo sapiens, UniProt Q99759).
T2 construct: purchased Eurofins DiscoverX KINOMEscan
T2 sequence (Q99759 1-626): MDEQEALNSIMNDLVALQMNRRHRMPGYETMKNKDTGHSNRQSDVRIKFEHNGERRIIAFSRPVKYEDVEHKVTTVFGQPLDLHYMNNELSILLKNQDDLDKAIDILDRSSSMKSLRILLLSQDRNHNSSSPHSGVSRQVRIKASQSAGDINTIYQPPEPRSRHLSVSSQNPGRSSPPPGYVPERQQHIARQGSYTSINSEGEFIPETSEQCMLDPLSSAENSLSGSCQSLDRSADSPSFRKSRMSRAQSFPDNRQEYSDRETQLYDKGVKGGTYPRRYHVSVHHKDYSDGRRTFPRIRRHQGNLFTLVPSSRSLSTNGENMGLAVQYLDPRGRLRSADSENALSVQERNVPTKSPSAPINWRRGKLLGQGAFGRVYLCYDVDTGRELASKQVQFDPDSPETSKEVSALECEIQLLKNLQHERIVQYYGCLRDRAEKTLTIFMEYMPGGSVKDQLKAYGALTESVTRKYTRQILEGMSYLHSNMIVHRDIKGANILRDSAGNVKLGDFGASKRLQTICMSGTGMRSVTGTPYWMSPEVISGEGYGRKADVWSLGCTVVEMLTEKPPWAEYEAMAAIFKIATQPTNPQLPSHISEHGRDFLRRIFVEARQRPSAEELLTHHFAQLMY

In the next experiment the target is T3, SIK (Homo sapiens, UniProt P57059).
T3 construct: purchased Eurofins DiscoverX KINOMEscan

The target in the next experiment is T4, AMPK-alpha2 (Homo sapiens, UniProt P54646).
T4 construct: purchased Eurofins DiscoverX KINOMEscan

For the next experiment, the target named is T5, CSF1R-autoinhibited (Homo sapiens, UniProt P07333).
T5 construct: purchased Eurofins DiscoverX KINOMEscan
T5 sequence (P07333 539-972 limits assumed): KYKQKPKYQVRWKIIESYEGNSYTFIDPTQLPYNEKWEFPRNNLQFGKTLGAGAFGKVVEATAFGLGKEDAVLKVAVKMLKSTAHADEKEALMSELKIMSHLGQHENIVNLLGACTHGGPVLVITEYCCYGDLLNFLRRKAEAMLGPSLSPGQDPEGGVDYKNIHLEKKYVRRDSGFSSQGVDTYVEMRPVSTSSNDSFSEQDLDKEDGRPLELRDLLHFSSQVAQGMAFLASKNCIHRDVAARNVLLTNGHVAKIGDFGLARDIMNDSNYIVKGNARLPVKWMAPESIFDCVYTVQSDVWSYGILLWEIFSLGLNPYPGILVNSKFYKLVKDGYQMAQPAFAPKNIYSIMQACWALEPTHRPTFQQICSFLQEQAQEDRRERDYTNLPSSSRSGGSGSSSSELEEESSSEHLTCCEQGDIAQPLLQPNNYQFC

For the next experiment, the target named is T6, CAMK1D (Homo sapiens, UniProt Q8IU85).
T6 construct: purchased Eurofins DiscoverX KINOMEscan

In another experiment the target is T7, MYO3A (Homo sapiens, UniProt Q8NEV4).
T7 construct: purchased Eurofins DiscoverX KINOMEscan

For the next experiment, the target named is T8, CLK1 (Homo sapiens, UniProt P49759).
T8 construct: purchased Eurofins DiscoverX KINOMEscan

The target of a further experiment is T9, CSNK2A1 (Homo sapiens, UniProt P68400).
T9 construct: purchased Eurofins DiscoverX KINOMEscan

A further experiment addresses T10, MST1 (Homo sapiens, UniProt Q13043).
T10 construct: purchased Eurofins DiscoverX KINOMEscan
T10 sequence (Q13043 1-487): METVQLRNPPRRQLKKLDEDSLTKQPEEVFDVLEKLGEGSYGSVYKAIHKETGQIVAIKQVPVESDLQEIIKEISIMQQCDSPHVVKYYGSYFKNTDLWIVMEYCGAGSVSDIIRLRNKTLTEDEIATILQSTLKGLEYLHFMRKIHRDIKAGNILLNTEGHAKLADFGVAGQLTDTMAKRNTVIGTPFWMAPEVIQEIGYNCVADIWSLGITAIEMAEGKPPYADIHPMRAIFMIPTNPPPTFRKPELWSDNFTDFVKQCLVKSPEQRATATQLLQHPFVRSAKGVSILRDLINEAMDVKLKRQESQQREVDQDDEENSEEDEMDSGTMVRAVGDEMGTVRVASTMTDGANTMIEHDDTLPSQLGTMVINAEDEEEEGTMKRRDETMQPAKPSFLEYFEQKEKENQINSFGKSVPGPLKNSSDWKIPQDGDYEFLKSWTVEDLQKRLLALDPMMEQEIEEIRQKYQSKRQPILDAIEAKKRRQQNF

T7 sequence (Q8NEV4 whole entry): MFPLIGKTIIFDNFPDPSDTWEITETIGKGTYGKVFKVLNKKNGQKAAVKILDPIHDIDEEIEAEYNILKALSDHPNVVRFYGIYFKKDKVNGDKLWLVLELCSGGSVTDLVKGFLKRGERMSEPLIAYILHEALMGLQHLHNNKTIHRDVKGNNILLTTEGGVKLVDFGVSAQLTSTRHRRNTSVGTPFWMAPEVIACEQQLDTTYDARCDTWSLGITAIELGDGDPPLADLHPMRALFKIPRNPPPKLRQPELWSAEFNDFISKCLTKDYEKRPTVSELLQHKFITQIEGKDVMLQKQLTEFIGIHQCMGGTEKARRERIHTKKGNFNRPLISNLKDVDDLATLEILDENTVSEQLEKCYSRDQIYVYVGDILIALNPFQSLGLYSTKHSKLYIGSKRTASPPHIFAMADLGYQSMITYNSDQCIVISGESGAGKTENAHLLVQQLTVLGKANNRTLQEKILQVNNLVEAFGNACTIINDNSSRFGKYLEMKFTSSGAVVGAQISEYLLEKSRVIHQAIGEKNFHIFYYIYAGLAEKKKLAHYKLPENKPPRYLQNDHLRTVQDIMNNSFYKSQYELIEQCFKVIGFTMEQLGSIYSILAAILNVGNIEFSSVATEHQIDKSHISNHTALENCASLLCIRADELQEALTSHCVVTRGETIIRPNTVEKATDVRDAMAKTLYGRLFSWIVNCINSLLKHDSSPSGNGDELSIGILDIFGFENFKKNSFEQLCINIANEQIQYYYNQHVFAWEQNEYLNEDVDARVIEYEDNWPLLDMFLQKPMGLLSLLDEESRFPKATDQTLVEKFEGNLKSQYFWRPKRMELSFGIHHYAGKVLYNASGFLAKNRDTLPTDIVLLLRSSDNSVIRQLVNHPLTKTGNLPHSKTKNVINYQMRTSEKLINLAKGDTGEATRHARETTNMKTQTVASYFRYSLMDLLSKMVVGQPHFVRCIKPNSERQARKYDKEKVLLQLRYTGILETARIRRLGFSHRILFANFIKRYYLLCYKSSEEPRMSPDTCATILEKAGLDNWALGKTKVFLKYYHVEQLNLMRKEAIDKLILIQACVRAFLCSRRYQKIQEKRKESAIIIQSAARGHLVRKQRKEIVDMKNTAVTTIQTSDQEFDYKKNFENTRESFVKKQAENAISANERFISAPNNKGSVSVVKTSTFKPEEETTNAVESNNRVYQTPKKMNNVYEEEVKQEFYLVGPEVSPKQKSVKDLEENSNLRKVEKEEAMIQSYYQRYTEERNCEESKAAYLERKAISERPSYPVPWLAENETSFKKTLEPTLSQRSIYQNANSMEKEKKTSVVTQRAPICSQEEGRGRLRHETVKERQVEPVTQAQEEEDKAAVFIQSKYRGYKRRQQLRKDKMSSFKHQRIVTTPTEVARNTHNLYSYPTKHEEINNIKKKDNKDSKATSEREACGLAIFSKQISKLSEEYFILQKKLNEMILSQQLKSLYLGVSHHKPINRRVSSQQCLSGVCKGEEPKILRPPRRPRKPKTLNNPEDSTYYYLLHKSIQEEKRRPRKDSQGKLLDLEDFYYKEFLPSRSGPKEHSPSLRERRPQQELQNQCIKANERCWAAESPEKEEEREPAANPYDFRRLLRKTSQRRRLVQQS
T4 sequence (P54646 whole entry): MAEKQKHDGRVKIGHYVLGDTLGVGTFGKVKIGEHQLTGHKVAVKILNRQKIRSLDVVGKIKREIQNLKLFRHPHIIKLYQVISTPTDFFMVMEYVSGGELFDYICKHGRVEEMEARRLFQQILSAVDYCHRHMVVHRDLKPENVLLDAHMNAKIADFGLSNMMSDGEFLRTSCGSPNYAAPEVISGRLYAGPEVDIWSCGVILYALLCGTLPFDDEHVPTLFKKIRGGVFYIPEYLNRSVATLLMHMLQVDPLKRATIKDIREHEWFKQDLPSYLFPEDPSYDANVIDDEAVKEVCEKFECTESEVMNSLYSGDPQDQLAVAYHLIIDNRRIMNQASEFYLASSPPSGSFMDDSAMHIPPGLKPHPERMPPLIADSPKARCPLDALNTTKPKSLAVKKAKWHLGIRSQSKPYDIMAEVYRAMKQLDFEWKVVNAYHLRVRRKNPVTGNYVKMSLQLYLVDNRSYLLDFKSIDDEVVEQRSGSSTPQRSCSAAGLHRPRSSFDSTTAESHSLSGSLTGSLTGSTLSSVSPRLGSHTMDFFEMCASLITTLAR
T3 sequence (P57059 whole entry): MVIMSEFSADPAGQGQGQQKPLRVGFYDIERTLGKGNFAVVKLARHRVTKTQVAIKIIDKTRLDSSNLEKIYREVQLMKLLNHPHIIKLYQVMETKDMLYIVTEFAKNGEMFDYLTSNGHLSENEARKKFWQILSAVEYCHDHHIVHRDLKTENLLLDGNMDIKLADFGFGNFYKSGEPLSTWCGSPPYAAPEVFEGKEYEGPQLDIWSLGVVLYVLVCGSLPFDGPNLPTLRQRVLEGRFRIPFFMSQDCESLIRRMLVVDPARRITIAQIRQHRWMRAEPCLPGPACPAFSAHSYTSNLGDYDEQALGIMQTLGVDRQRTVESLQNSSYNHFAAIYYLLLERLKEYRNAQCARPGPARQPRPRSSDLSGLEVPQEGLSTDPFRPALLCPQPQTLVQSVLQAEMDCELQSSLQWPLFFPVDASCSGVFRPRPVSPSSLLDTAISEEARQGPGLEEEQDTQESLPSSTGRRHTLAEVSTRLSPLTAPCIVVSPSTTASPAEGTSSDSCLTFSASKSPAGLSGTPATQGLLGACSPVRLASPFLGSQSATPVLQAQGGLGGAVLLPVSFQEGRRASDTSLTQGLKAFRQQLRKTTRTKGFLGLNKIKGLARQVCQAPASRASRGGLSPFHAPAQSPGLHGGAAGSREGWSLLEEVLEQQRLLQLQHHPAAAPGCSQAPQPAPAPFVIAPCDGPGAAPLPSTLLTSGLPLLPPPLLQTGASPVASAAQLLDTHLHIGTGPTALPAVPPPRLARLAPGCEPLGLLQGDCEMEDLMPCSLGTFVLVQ
T1 sequence (P80192 whole entry): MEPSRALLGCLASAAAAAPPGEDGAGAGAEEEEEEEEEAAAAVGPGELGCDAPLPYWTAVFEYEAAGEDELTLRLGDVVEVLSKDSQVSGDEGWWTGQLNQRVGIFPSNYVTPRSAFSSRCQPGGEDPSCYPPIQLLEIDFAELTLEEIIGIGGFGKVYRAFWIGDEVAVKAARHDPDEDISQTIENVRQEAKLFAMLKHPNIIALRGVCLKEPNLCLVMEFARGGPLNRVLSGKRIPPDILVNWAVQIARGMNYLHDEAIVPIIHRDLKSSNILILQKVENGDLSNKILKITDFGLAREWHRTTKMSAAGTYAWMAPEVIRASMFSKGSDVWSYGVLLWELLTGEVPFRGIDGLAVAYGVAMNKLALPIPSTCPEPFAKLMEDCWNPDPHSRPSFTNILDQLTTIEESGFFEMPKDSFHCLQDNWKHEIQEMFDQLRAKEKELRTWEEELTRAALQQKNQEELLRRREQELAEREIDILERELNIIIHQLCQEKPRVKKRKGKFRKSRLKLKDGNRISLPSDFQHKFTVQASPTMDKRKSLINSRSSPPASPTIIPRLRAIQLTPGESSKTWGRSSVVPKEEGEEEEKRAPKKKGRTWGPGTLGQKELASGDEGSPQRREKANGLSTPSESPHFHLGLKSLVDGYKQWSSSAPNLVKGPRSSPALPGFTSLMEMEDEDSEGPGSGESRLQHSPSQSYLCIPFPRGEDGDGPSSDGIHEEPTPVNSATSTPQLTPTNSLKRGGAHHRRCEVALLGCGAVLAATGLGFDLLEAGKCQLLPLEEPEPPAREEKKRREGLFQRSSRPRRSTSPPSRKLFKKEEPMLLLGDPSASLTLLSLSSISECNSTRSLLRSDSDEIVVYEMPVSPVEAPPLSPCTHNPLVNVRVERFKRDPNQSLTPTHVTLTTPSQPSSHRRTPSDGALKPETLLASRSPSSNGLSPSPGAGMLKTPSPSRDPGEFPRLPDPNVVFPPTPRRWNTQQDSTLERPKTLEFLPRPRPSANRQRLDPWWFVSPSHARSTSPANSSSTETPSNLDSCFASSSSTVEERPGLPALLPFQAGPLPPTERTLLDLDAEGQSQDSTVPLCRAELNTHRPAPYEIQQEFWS
T6 sequence (Q8IU85 whole entry): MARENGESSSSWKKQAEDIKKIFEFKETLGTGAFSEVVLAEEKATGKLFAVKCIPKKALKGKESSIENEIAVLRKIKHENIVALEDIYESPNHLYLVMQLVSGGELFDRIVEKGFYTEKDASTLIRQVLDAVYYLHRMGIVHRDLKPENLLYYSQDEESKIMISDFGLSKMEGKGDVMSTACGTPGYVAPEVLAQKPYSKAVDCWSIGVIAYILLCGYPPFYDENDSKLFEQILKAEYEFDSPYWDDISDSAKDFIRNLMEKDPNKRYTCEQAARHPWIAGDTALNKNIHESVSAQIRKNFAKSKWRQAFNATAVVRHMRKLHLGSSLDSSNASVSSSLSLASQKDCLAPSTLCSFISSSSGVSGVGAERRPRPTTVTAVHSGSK
T8 sequence (P49759 whole entry): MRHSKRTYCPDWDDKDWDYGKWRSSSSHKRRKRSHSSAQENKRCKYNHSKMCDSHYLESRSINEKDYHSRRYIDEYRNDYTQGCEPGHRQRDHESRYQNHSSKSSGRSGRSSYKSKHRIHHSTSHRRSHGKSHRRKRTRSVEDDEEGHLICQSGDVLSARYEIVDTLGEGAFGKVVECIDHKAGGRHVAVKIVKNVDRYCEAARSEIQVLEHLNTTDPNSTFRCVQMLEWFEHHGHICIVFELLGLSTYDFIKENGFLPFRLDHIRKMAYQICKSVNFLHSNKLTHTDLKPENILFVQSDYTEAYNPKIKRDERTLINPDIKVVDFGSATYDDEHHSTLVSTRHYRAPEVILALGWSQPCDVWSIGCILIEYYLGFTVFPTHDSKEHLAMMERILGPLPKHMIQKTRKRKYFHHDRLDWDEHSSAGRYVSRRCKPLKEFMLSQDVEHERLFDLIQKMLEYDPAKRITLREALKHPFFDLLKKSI

Regarding `Clc1cc(NCC2CC2)c2ncc(-c3ccc4[nH]ncc4c3)n2n1` [compound 2, 6-Chloro-N-(cyclopropylmethyl)-3-(1H-indazol-5-yl)imidazo[1,2-b]pyridazin-8-amine], the remaining binding at 1 µM on MLK1 was 85%; at MAP3K3 it was 88%; at SIK it was 98%; on AMPK-alpha2 it was 94%; at CSF1R-autoinhibited, 98%; on CAMK1D, 100%. For the same molecule, the remaining binding at 1 µM was found to be 96% at MYO3A, 4% on CLK1, 85% on CSNK2A1 and 100% at MST1.
On to `O=C(CN1CCOCC1)N[C@H]1CC[C@H](Nc2cc(Cl)nn3c(-c4ccc5[nH]ncc5c4)cnc23)CC1` [compound 26], for which the remaining binding at 1 µM on MLK1 was determined as 100%; on MAP3K3, 89%; on SIK it was 89%; at AMPK-alpha2, 92%; on CSF1R-autoinhibited it was 91%; at CAMK1D, 71%. Besides, the remaining binding at 1 µM was found to be 96% on MYO3A, 1.2% on CLK1, 75% at CSNK2A1 and 100% at MST1.
As for `CN1CCC(CNc2cc(Cl)nn3c(-c4cc5nc(Nc6ccccc6)[nH]c5cc4F)cnc23)CC1` [compound 31, 6-Chloro-3-(6-fluoro-2-(phenylamino)-1H-benzo[d]imidazol-5-yl)-N-((1-methylpiperidin-4-yl)methyl)imidazo[1,2-b]pyridazin-8-amine], the remaining binding at 1 µM on MLK1 was found to be 93%; at MAP3K3 it was 73%; on SIK, 91%; on AMPK-alpha2, 99%; at CSF1R-autoinhibited, 100%; on CAMK1D, 85%. Further, the remaining binding at 1 µM at MYO3A was found to be 97%; at CLK1, 16%; on CSNK2A1, 99%; at MST1 it was 95%.
